Strand notation (5' to 3'): a small letter for the sugar, then the base; units joined by * are phosphorothioate-linked, units joined directly phosphodiester-linked; [ ] holds rarer units or linkages, { } end groups; capitals alone tell only the bases. k = constrained ethyl (cEt); [5mC] = 5-methylcytosine; d = 2'-deoxy (DNA)
System: Yap1 mRNA
Experiment: Antisense inhibition of human Yap1 in A-431 cells by cEt gapmers, single dose (Example 2, RTS4814)
Assay type: cell-based
Details: A-431 cells, 5,000 cells per well, free uptake, 2,000 nM modified oligonucleotide, approx. 48 hours, RTS4814, normalized to RIBOGREEN; Table 4; asterisk (*) = targets amplicon region of primer probe set
Outline: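 Read-out is Yap1 mRNA as percent of untreated cells, by real-time RT-PCR (probe set RTS4814) normalized to total RNA via RIBOGREEN. Cells were A-431 dosed with 2,000 nM gapmer without transfection for approximately 48 hours.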

Substance | YAP1 (% UTC)
716352 (k[5mC]*kT*kG*d[5mC]*dG*d[5mC]*d[5mC]*d[5mC]*d[5mC]*dG*dG*d[5mC]*dT*k[5mC]*k[5mC]*kA; antisense) [Compound 716352] | 105 % UTC
716577 (kT*k[5mC]*kT*dG*dT*d[5mC]*dA*dG*dT*dT*dA*dT*d[5mC]*k[5mC]*kT*kA; antisense) [Compound 716577] | 21 % UTC
716457 (kA*kA*kA*dG*dG*dA*dT*dA*d[5mC]*dA*dT*dT*d[5mC]*k[5mC]*kA*k[5mC]; antisense) [Compound 716457] | 61 % UTC

Same assay, conditions: Table 5; A-431 cells, 5,000 cells per well, free uptake, 2,000 nM modified oligonucleotide, approx. 48 hours; RTS4814; normalized to RIBOGREEN; Yap1 mRNA relative to untreated control cells

Substance | YAP1 (% UTC)
716437 (k[5mC]*k[5mC]*kA*dG*dT*dA*dA*dA*dT*d[5mC]*dA*dT*dG*kT*kT*kT; antisense) [Compound 716437] | 41 % UTC
716389 (kA*kG*k[5mC]*d[5mC]*dT*dT*dG*dG*dG*dT*d[5mC]*dT*dA*kG*k[5mC]*k[5mC]; antisense) [Compound 716389] | 93 % UTC
716545 (kG*k[5mC]*kA*dT*dG*dT*dA*dT*dT*dT*dA*dA*dT*kA*kT*kG; antisense) [Compound 716545] | 91 % UTC
716380 (kT*kT*kA*dA*dG*dA*dA*dG*dT*dA*dT*d[5mC]*dT*k[5mC]*kT*kG; antisense) [Compound 716380] | 54 % UTC

Same assay, conditions: Table 6; A-431 cells, 5,000 cells per well, free uptake, 2,000 nM modified oligonucleotide, approx. 48 hours; RTS4814; normalized to RIBOGREEN; Yap1 mRNA relative to untreated control cells

Substance | YAP1 (% UTC)
716474 (kT*kA*kA*dA*dT*dG*dA*dA*dG*dG*dT*dA*dA*kA*k[5mC]*k[5mC]; antisense) [Compound 716474] | 120 % UTC
716507 (antisense kA*k[5mC]*kT*dA*d[5mC]*dT*d[5mC]*dT*dA*dA*dA*dA*d[5mC]*kT*k[5mC]*k[5mC]) [Compound 716507] | 53 % UTC
716447 (k[5mC]*k[5mC]*kA*dA*d[5mC]*d[5mC]*dA*dA*d[5mC]*d[5mC]*d[5mC]*d[5mC]*d[5mC]*k[5mC]*k[5mC]*kA; antisense) [Compound 716447] | 97 % UTC
716549 (k[5mC]*k[5mC]*kA*d[5mC]*dT*dT*dT*dT*dG*d[5mC]*dA*dA*dT*kG*kT*kT; antisense) [Compound 716549] | 44 % UTC
716567 (kG*kA*k[5mC]*dT*dA*dT*dA*d[5mC]*dA*dA*d[5mC]*dA*dG*kG*k[5mC]*k[5mC]; antisense) [Compound 716567] | 134 % UTC

Same assay, conditions: Table 18; A-431 cells, 5,000 cells per well, free uptake, 2,000 nM modified oligonucleotide, approx. 48 hours; RTS4814; normalized to RIBOGREEN; Yap1 mRNA as percent of untreated control

Substance | YAP1 (% UTC)
1075460 (antisense kA*kA*kT*dA*dA*d[5mC]*d[5mC]*dA*dA*dG*dG*dA*dT*kA*kG*kT) [Compound 1075460] | 30 % UTC
1075812 (k[5mC]*kA*kT*dT*dA*dA*dG*dA*dT*dT*dT*dT*dA*kA*k[5mC]*k[5mC]; antisense) [Compound 1075812] | 103 % UTC
1074980 (antisense kT*kA*kT*dT*dG*d[5mC]*d[5mC]*dA*dG*dT*dT*d[5mC]*dT*kT*kG*kT) [Compound 1074980] | 26 % UTC

Same assay, conditions: Table 19; A-431 cells, 5,000 cells per well, free uptake, 2,000 nM modified oligonucleotide, approx. 48 hours; RTS4814; normalized to RIBOGREEN; Yap1 mRNA as percent of untreated control

Substance | YAP1 (% UTC)
1074757 (kA*kG*kT*dT*dA*dA*dG*d[5mC]*dA*d[5mC]*dT*dT*dT*kT*kA*k[5mC]; antisense) [Compound 1074757] | 21 % UTC
1074181 (antisense k[5mC]*k[5mC]*k[5mC]*dG*dG*dG*dA*dT*d[5mC]*d[5mC]*dA*dT*dG*kG*k[5mC]*kT) [Compound 1074181] | 107 % UTC
1075461 (antisense k[5mC]*kT*kA*dA*dA*dT*dA*dA*d[5mC]*d[5mC]*dA*dA*dG*kG*kA*kT) [Compound 1075461] | 64 % UTC

Same assay, conditions: Table 20; Yap1 mRNA, percent of untreated control; 3-10-3 cEt gapmers targeting SEQ ID NO.: 1 and 2

Substance | YAP1 (% UTC)
1076070 (kA*kT*kT*dA*dG*dT*dA*dA*dT*dG*d[5mC]*dA*d[5mC]*kA*kG*kG; antisense) [Compound 1076070] | 6 % UTC
1075366 (kA*k[5mC]*kA*d[5mC]*dG*dA*dA*dA*dA*dT*dA*dG*dT*kT*k[5mC]*kT; antisense) [Compound 1075366] | 27 % UTC
1074406 (antisense kA*kA*kA*dG*dT*dA*dT*d[5mC]*dT*dT*dG*d[5mC]*dT*kG*kG*kA) [Compound 1074406] | 16 % UTC
1075238 (antisense k[5mC]*kT*kT*dA*dA*dA*d[5mC]*dA*dG*dG*dT*dG*d[5mC]*k[5mC]*kA*kA) [Compound 1075238] | 24 % UTC
1076006 (kT*kT*kT*dA*dA*dA*d[5mC]*d[5mC]*dT*dG*dA*dG*dA*k[5mC]*kT*k[5mC]; antisense) [Compound 1076006] | 41 % UTC

Same assay, conditions: Table 21; Yap1 mRNA, percent of untreated control; 3-10-3 cEt gapmers targeting SEQ ID NO.: 1 and 2

Substance | YAP1 (% UTC)
1075655 (k[5mC]*kT*kA*dT*dT*dA*dA*dG*dA*d[5mC]*dG*dA*dA*kT*k[5mC]*k[5mC]; antisense) [Compound 1075655] | 38 % UTC

Same assay, conditions: Table 22; Yap1 mRNA as percent of untreated control; 3-10-3 cEt gapmers; single dose

Substance | YAP1 (% UTC)
1076136 (k[5mC]*kA*kA*d[5mC]*dA*dA*d[5mC]*d[5mC]*dT*d[5mC]*dA*dT*dG*kT*kA*kA; antisense) [Compound 1076136] | 60 % UTC
1076392 (kT*kA*kT*dT*dA*dA*dT*d[5mC]*dA*dA*dA*dT*dA*kG*kG*kG; antisense) [Compound 1076392] | 64 % UTC
1074248 (antisense kG*kA*kT*d[5mC]*dG*dA*dT*dG*dT*dG*dA*dT*dT*kT*kA*kA) [Compound 1074248] | 29 % UTC

Same assay, conditions: Table 23; Yap1 mRNA as percent of untreated control; 3-10-3 cEt gapmers; single dose

Substance | YAP1 (% UTC)
1076041 (kG*kT*kT*dA*dA*dA*dG*dA*dG*dT*dG*dG*dA*kA*kA*kT; antisense) [Compound 1076041] | 47 % UTC
1076137 (k[5mC]*kA*k[5mC]*d[5mC]*dA*dA*d[5mC]*dA*dA*d[5mC]*d[5mC]*dT*d[5mC]*kA*kT*kG; antisense) [Compound 1076137] | 45 % UTC

Same assay, conditions: Table 24; Yap1 mRNA as percent of untreated control; 3-10-3 cEt gapmers targeting SEQ ID NO.: 1, and 2

Substance | YAP1 (% UTC)
1075434 (antisense kG*kT*kA*dA*dA*dA*dG*dA*dG*dG*dT*dG*d[5mC]*kA*kT*k[5mC]) [Compound 1075434] | 96 % UTC
1075306 (kT*kA*kA*dA*d[5mC]*dG*dA*dA*dA*d[5mC]*dA*d[5mC]*dG*kG*kG*kT; antisense) [Compound 1075306] | 30 % UTC
1075018 (antisense k[5mC]*k[5mC]*kT*dT*dA*dA*dA*dG*dT*dG*dA*dT*dA*k[5mC]*kA*k[5mC]) [Compound 1075018] | 29 % UTC
1075658 (kG*kT*kA*dA*dA*dA*dA*dA*d[5mC]*dG*dG*dT*dT*kT*kT*kT; antisense) [Compound 1075658] | 103 % UTC
1075146 (antisense kG*kT*kA*dT*dT*dA*dA*dG*dG*dG*dA*dT*dT*kT*kT*k[5mC]) [Compound 1075146] | 8 % UTC
1074634 (antisense kG*k[5mC]*kT*dG*dA*dG*dG*d[5mC]*dT*dT*dT*dT*d[5mC]*kA*kT*kA) [Compound 1074634] | 55 % UTC

Same assay, conditions: Table 25; Yap1 mRNA as percent of untreated control; 3-10-3 cEt gapmers targeting SEQ ID NO.: 1, and 2

Substance | YAP1 (% UTC)
1074603 (antisense kT*kT*k[5mC]*d[5mC]*dA*dG*d[5mC]*dT*dA*dA*d[5mC]*dT*d[5mC]*kA*kA*kA) [Compound 1074603] | 17 % UTC

Same assay, conditions: Table 32; Yap1 mRNA, percent of untreated control; 3-10-3 cEt gapmers targeting SEQ ID NO.: 1, and 2

Substance | YAP1 (% UTC)
1075826 (kT*kA*kG*dG*dG*dA*dA*dA*dA*d[5mC]*d[5mC]*dA*dT*kA*kG*k[5mC]; antisense) [compound 1075826] | 23 % UTC
1075314 (antisense kA*kA*kT*dA*dA*dA*dG*dT*d[5mC]*dT*dA*dA*dT*k[5mC]*k[5mC]*kA) [compound 1075314] | 54 % UTC
1074642 (antisense kG*kG*kG*d[5mC]*d[5mC]*dA*dA*dA*dA*dT*dA*d[5mC]*dT*kT*kA*kG) [compound 1074642] | 78 % UTC

Same assay, conditions: Table 33; Yap1 mRNA, percent of untreated control; 3-10-3 cEt gapmers targeting SEQ ID NO.: 1, and 2

Substance | YAP1 (% UTC)
1076403 (antisense kA*kT*kT*dT*dA*dA*dG*dA*d[5mC]*d[5mC]*dT*dG*dG*kT*kG*kA) [compound 1076403] | 26 % UTC
1075987 (kG*kA*kA*dG*dA*dA*dT*dA*dT*d[5mC]*dG*dA*dA*kA*kA*kG; antisense) [compound 1075987] | 13 % UTC

Same assay, conditions: Yap1 mRNA as percent of untreated control; A-431 cells; 3-10-3 cEt gapmers targeting SEQ ID NO.: 1, and 2; Table 30

Substance | YAP1 (% UTC)
1074992 (antisense k[5mC]*kA*kA*dT*dT*dA*dT*dT*dT*dG*dA*d[5mC]*dT*k[5mC]*k[5mC]*k[5mC]) [compound 1074992] | 63 % UTC
1074256 (antisense k[5mC]*kA*k[5mC]*dT*dG*dG*dT*dG*dG*dA*d[5mC]*dT*dG*kG*kT*kG) [compound 1074256] | 64 % UTC

Same assay, conditions: Yap1 mRNA as percent of untreated control; A-431 cells; 3-10-3 cEt gapmers targeting SEQ ID NO.: 1, and 2; Table 31

Substance | YAP1 (% UTC)
1076497 (kA*kA*kA*dG*dA*dA*dT*dA*d[5mC]*d[5mC]*dA*dA*d[5mC]*k[5mC]*kT*kG; antisense) [compound 1076497] | 72 % UTC
1076529 (k[5mC]*kT*kA*dT*dA*dA*dT*dG*dA*dG*dG*dA*dT*kT*kA*k[5mC]; antisense) [compound 1076529] | 108 % UTC

Reference: patent US11214803B2, “Modulators of YAP1 expression” (Ionis Pharmaceuticals, Inc., priority 2019, dated 2022)
